Test results taken from publication PMC7144022, “Quinolinecarboxamides Inhibit the Replication of the Bovine Viral Diarrhea Virus by Targeting a Hot Spot for the Inhibition of Pestivirus Replication in the RNA-Dependent RNA Polymerase” (Molecules, 2020).
Where “and” joins values, the source holds several entries; their conditions need not be identical. Identical values can stand only once.

Assays:
[1] = Cytotoxicity assay, proliferation of exponentially growing MDBK cells (MTS/PMS); assay type: cell-based, bovine; conditions: bovine
Description: (§1) Assays were carried out, as described previously.

BVDV NADL virus = assay: CPE-based antiviral assay, BVDV NADL in MDBK cells (MTS/PMS); conditions: for S.I.: selectivity index, CC50 vs EC50
[2] = biological target: T1, BVDV (NADL) RNA-dependent RNA polymerase (RdRp) (Bovine viral diarrhea virus, UniProt P19711); conditions: reference compounds; cited from earlier work
T1 construct: BVDV (NADL) RNA-dependent RNA polymerase (RdRp) was expressed and purified; made in house

BVDV-1 (strain NADL) = assay: microbe, parasite or virus in culture; assay type: cell-based, bovine viral diarrhea virus (BVDV); conditions: Bovine viral diarrhea virus isolates and strains; RT-qPCR, MDBK cells
[3] = biological target: T1, BVDV (NADL) RNA-dependent RNA polymerase (RdRp); assay: RNA-dependent RNA polymerase assay, poly(C) template; assay type: biochemical; conditions: purified RdRp, up to 500 µM
Description: BVDV (NADL) RNA-dependent RNA polymerase (RdRp) was expressed and purified, as described before. […] In brief, the purified BVDV polymerase (100 nM) was mixed with 100 µM GTP (containing 8.3 µM of [^3H]GTP, Perkin Elmer) and increasing concentration of the inhibitor (0.2 µM, 0.7 µM, 2 µM, 6 µM, 19 µM, 56 µM, 165 µM or 500 µM) in 50 mM Hepes pH 8.0, 10 mM KCl, 10 mM DTT, 1 mM MgCl2, 2mM MnCl2, and 0.5% igepal (Sigma). The enzyme mix and inhibitors were pre-incubated, in order to favor enzyme-inhibitor interactions before RNA binding. Reactions were started by the addition of 100 nM of poly(C) (about 500 nt in size) template. Reactions were incubated at 30 °C and stopped by addition of 50 mM EDTA. Samples were transferred onto DE-81 filters, washed with 0.3 M ammonium formate solution, and dried. Radioactivity bound to the filter was determined by liquid scintillation counting.

[4] = biological target: BVDV WT replication complexes (Bovine viral diarrhea virus, UniProt P19711); assay: Replication complex (RC) assay, wild-type BVDV; assay type: biochemical; conditions: for effect on activity of BVDV WT replication complexes: RCs isolated 14 h post-infection
Description: (§2) The replication complex (RC) assay is similar to the one described before. In brief, BVDV-infected MDBK cells were suspended in an ice-cold hypotonic buffer A (10 mM Tris, 10 mM NaCl pH 7.8) and were further disrupted by 50 strokes with a Dounce homogenizer. The disrupted cells were pelleted by centrifugation at 1,000× g for 5 min at 4 °C. The supernatant fraction, containing cytoplasmic material and plasma membranes, was concentrated by high-speed centrifugation at 200,000× g for 20 min at 4 °C. The pellet was resuspended in 120 µL of hypotonic buffer B (10 mM Tris, 10 mM NaCl pH 7.8 and 15% glycerol) and used for an RNA polymerase assay. Replicase reactions were carried out, as described before, with some modifications. The [α-^33P]UTP (3,000 mCi/mmol) was replaced by [α-^33P]CTP (3,000 mCi/mmol). The following incubation, RNA extraction, RNA analysis, and quantification were performed, as previously described.

[5] = system: classical swine fever virus (CSFV); assay type: cell-based
hepatitis C virus = assay: In vitro activity against hepatitis C virus; assay type: cell-based
[6] = system: panel of unrelated RNA and DNA viruses; assay: Activity against a panel of unrelated RNA and DNA viruses; assay type: cell-based; conditions: data not shown
[7] = system: RCs from MDBK cells infected with the TO505-6180res virus; assay: Replication complex (RC) assay, TO505-6180res BVDV; assay type: biochemical, bovine viral diarrhea virus (BVDV); conditions: RCs from TO505-6180res infected MDBK cells
Description: as §2

MDBK cells = assay: Cytotoxicity assay, proliferation of exponentially growing MDBK cells (MTS/PMS); assay type: cell-based, bovine; conditions: 5 days
Description: as §1

[8] = Bovine viral diarrhea virus isolates and strains, MDBK, 72 h
[9] = sheet CSFCII#, potency relative to TO502-2403 (EC50 0.2 µM)
[10] = sheet CSFCI#, potency relative to TO505-6180 (EC50 0.07 µM)
[11] = protection against BVDV (NADL, wild type)-induced CPE in MDBK cells, 3 days

BVDV WT replication complexes, sequence (P19711 3270-3988, one chain of several): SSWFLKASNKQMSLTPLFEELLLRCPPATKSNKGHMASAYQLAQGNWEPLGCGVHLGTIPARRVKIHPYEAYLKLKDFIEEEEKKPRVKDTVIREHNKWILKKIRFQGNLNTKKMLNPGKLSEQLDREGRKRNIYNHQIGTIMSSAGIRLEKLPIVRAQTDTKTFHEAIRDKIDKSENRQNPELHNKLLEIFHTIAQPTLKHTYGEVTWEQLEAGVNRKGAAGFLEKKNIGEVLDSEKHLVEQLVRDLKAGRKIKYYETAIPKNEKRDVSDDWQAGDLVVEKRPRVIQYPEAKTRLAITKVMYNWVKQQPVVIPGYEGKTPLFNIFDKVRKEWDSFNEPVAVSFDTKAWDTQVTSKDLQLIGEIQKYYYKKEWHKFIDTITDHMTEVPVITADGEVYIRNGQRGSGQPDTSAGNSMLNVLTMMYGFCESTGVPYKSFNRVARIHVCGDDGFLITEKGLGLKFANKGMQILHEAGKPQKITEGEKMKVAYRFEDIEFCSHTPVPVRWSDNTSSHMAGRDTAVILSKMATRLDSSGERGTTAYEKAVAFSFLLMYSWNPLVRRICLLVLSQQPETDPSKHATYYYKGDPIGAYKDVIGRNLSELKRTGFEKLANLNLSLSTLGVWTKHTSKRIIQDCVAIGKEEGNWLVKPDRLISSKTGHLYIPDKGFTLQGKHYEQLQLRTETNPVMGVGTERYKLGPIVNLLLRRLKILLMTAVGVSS
T1 sequence (P19711 3270-3988): as the sequence (P19711 3270-3988, one chain of several) above

Molecule | CC50 at 5 days [1] [nM] | EC50 (BVDV NADL virus; [8]) [nM] | S.I. (BVDV NADL virus) | fold increase (BVDV NADL virus; [9]) | fold increase (BVDV NADL virus; [10]) | other results
O=C(Nc1ccn(-c2ccccc2)n1)c1cc(-c2ccc3ccccc3c2)nc2ccccc12 [CSFC-146, O=C(c2cc(nc1ccccc12)c3cc4ccccc4cc3)Nc5ccn(n5)c6ccccc6] | > 100000 | 30 | 3333 | 6.67 |  | 
O=C(Nc1nc2c(F)cc(Br)cc2s1)c1cc(-c2ccccc2)nc2ccccc12 [CSFC-147, Fc1cc(Br)cc2sc(nc12)NC(=O)c1cc(nc2ccccc21)c1ccccc1] | 6200 ± 1100 | 10 |  |  | 7.00 | 
O=C(Nc1nc2c(C(F)(F)F)cccc2s1)c1cc(-c2ccccc2)nc2ccccc12 [CSFC-148, FC(F)(F)c1cccc2sc(nc12)NC(=O)c1cc(nc2ccccc21)c1ccccc1] | 20000 ± 1600 | 300 | 67 |  | 0.23 | 
Cc1cc(C)c2sc(NC(=O)c3cc(-c4ccccc4)nc4ccccc34)nc2c1 [CSFC-149, Cc1cc2nc(NC(=O)c3cc(nc4ccccc43)c3ccccc3)sc2c(C)c1] | > 100000 | 200 | 500 |  | 0.35 | 
O=C(Nc1nc2c(F)cccc2s1)c1cc(-c2ccccc2)nc2ccccc12 [CSFC-150, Fc1cccc2sc(nc12)NC(=O)c1cc(nc2ccccc21)c1ccccc1] | 8000 ± 1000 | 100 | 80 |  | 0.70 | 
Nc1nc2c(cnn2CCCc2ccc3c(c2)OCO3)c2nc(-c3ccco3)nn12 [LZ37, 7-[3-(1,3-benzodioxol-5-yl)propyl]-2-(2-furyl)-7H-pyrazolo[4,3-e][1,2, 4]triazolo[1,5-c]pyrimidin-5-amine] |  |  |  |  |  | inhibitory effect on the highly purified BVDV RdRp [2]: none of these compounds had any inhibitory effect
O=C(Nc1ccn(-c2ccccc2)n1)c1cc(-c2ccccc2)nc2ccccc12 [TO502-2403, 2-phenyl-N-(1-phenyl-1H-pyrazol-3-yl)-4-Quinolinecarboxamide] | > 100000 | 200 |  |  |  | EC50 (BVDV-1 (strain NADL)): 60 nM and 50 nM; effect on the activity of the viral polymerase [3]: no effect; effect on activity of BVDV WT replication complexes [4]: inhibited the activity of the BVDV WT replication complexes in a dose-dependent manner; inhibition at 10 µM ([4]; at 10 µM, read-out: maximum inhibition of BVDV WT replication complex activity): ~90%; inhibition of in vitro CSFV replication [5]: inhibited; in vitro activity against hepatitis C virus (hepatitis C virus): inactive; activity against a panel of unrelated RNA and DNA viruses [6]: inactive
Cc1ccc2nc(NC(=O)c3cc(-c4ccco4)nc4ccccc34)sc2c1 [TO505-6180, 2-(2-furanyl)-N-(6-methyl-2-benzothiazolyl)-4-Quinolinecarboxamide] | > 100000 | 70 |  |  |  | EC50 (BVDV-1 (strain NADL)): 30 nM and 60 nM; effect on the activity of the viral polymerase [3]: no effect; effect on activity of BVDV WT replication complexes [4]: inhibited the activity of the BVDV wt RCs in a dose-dependent manner; fold less susceptible than BVDV wt RCs [7]: 3 to 4 fold; inhibition of in vitro CSFV replication [5]: inhibited; in vitro activity against hepatitis C virus (hepatitis C virus): inactive; activity against a panel of unrelated RNA and DNA viruses [6]: inactive
Cc1cc(nn1)NC(=O)c3cc(nc2ccccc23)c4ccccc4 [CSFC-20] |  |  | 1 | 0.002 |  | CC50 (MDBK cells): > 100000 nM
Cc1cccc2sc(nc12)NC(=O)c4cc(nc3ccccc34)c5cccn5 [CSFC-59] |  |  | 2 | 0.0037 |  | CC50 (MDBK cells): > 100000 nM; EC50 (BVDV NADL virus; [11]): 54000 nM
O=C(Nc2cc(c1ccccc1)nn2)c4cc(nc3ccc(F)cc34)c5cccs5 [CSFC-124] |  |  | 5 | 0.00909 |  | CC50 (MDBK cells): > 100000 nM; EC50 (BVDV NADL virus; [11]): 22000 nM
